The values below come from patent publication EP0802184B1, “N-Benzyl-2-phenylindoles as estrogenic agents” (Wyeth, priority 1996, dated 1997).

In experiment [1] the test system is Ishikawa cells. Briefly: Ishikawa Cell Alkaline Phosphatase Assay. The class given is cell-based, human. As to conditions: for % Activation (Compound + 1 nM 17β-estradiol): 10^-6 M compound + 10^-9 M 17β-estradiol; for % Activation (Compound + 1 nM 17β-estradiol) / % Activation: 48 h; for % Activation: compound alone, percent of response related to 1 nM 17β-estradiol. As for the experimental part:
Cells were treated for 48 h prior to assay. […] Sample population for at each dose was n=8. […] Plates are placed at -80°C for a minimum of 15 minutes. Plates are thawed at 37°C followed by the addition of 150μL of 0.1 M Tris-HCl, pH 9.8, containing 4 mM para-nitrophenylphosphate (pNPP) to each well (final concentration, 3 mM pNPP). Absorbance and slope calculations were made using the […] Application program (Bio-Tek Instruments, Inc., Winooski, VT). […] Various compounds were assayed for estrogenic activity by the alkaline phosphatase method and corresponding ED50 values (95% C.I.) were calculated. The four listed in the following were used as reference standards: A description of such methods is provided by Holinka, […]., Kuramoto, H. and Gurpide, E. (1986) Effects of steroid hormones and antisteroids on alkaline phosphatase activity in human endometrial cancer cells (Ishikawa Line). Cancer Research, 46:2771-2774, and by […]. and by […] simple and sensitive microtiter plate estrogen bioassay based on stimulation alkaline phosphatase in Ishikawa cells; […] Endocrinology, 6:2757-2762.

The target in experiment [2] is T1, estrogen receptor (Homo sapiens, UniProt P03372).
T1 sequence (P03372 1-595): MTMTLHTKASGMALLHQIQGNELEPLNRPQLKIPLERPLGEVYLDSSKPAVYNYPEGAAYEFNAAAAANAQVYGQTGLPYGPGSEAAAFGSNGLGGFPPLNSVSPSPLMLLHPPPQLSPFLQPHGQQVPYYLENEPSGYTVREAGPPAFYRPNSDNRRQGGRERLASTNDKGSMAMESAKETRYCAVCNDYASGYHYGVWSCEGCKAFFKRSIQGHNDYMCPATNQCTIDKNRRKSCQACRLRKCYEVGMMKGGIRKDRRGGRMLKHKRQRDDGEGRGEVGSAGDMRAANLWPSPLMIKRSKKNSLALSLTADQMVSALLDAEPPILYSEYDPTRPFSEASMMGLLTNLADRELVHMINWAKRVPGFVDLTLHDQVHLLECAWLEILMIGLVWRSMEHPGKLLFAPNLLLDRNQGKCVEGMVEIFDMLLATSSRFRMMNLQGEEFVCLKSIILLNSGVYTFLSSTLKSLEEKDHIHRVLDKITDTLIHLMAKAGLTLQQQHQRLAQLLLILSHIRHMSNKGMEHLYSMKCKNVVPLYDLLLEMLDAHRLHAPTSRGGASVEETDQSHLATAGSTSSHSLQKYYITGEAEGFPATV
Nature of the experiment: 2X VIT ERE Transfection Assay (Infection Luciferase Assay). The class given is cell-based. Particulars: 24 h; for % Activation with 1 nM 17β-estradiol: 1 uM compound + 1 nM 17β-estradiol (test for estrogen antagonism); for % Activation: compound alone (1 uM), compared to 17β-estradiol. On the procedure:
Chinese Hamster Ovary cells (CHO) which had been stably transfected with the human estrogen receptor were maintained in DMEM + 10% fetal bovine serum (FBS). 48h prior to treatment the growth medium was replaced with DMEM lacking phenol red + 10% dextran coated charcoal stripped FBS (treatment medium). Cells were plated at a density of 5000 cells/well in 96-well plates containing 200 µL of medium/well.
Reporter DNA (Promega plasmid pGL2 containing two tandem copies of the vitellogenin ERE in front of the minimal thymidine kinase promoter driving the luciferase gene) was combined with the B-galactosidase expression plasmid pCH110 (Pharmacia) and carrier DNA (pTZ18U) in the following ratio: • 10uG of reporter DNA • 5uG of pCH110DNA • 5 uG of pTZ18U • 20 uG of DNA/1 mL of transfection solution
20 uL of this mixture was added to each well of cells and remained on the cells for 16 h. […] Each treatment condition was performed on 8 wells (n=8) which were incubated for 24 h prior to the luciferase assay.
After removing the PBS, 25 uL of Promega lysis buffer was added to each well and allowed to stand at room temperature for 15 min, followed by 15 min at -80°C and 15 min at 37°C. 20 uL of lysate was transferred to an opaque 96 well plate for luciferase activity evaluation and the remaining lysate (5 uL) was used for the B-galactosidase activity evaluation (normalize transfection). The luciferan substrate (Promega) was added in 100 uL aliquots to each well automatically by the luminometer and the light produced (relative light units) was read 10 seconds after addition.
To the remaining 5 uL of lysate 45 uL of PBS was added. Then 50 uL of Promega B-galactosidase 2X assay buffer was added, mixed well and incubated at 37°C for 1 hour. A plate containing a standard curve (0.1 to 1.5 milliunits in triplicate) was set up for each experimental run. The plates were analyzed on a Molecular Devices spectrophotometric plate reader at 410 nm. The optical densities for the unknown were converted to milliunits of activity by mathematical extrapolation from the standard curve.
The luciferase data was generated as relative light units (RLUs) accumulated during a 10 second measurement and automatically transferred to a JMP (SAS Inc) file where background RLUs were subtracted. The B-galactosidase values were automatically imported into the file and these values were divided into the RLUs to normalize the data. The mean and standard deviations were determined from a n=8 for each treatment. […] These techniques are described by Tzukerman, M.T., Esty, A., Santiso-Mere, D., Danielian, P., Parker, M.G., Stein, R.B., Pike, J.W. and McDonnel, D.P. (1994). Human estrogen receptor transactivational capacity was determined by both cellular and promoter context and mediated by two functionally distinct intramolecular regions (see Molecular Endocrinology, 8:21-30).

The target in experiment [3] is T1, estrogen receptor. Nature of the experiment: In vitro estrogen receptor binding assay (competition with [3H]-17β-estradiol). As to conditions: relative to 17β-estradiol=100; cytosol of CHO cells overexpressing the estrogen receptor. Details: expressed in transfected cells; host or cells: CHO cells (ribosome-free cytosol). As for the experimental part: CHO cells overexpressing the estrogen receptor were grown in 150 mm^2 dishes in DMEM + 10% dextran coated charcoal, stripped fetal bovine serum. The plates were washed twice with PBS and once with 10mM Tris-HCl, pH 7.4, 1mM EDTA. Cells were harvested by scraping the surface and then the cell suspension was placed on ice. Cells were disrupted with a hand-held motorized tissue grinder using two, 10-second bursts. The crude preparation was centrifuged at 12,000g for 20 minutes followed by a 60 minute spin at 100,000g to produce a ribosome free cytosol. The cytosol was then frozen and stored at -80°C. Protein concentration of the cytosol was estimated using the BCA assay with reference standard protein.
100uG/100uL of the receptor preparation was aliquoted per well. […] The plate was incubated at room temperature for 2.5 h. At the end of this incubation period 150 uL of ice-cold dextran coated charcoal (5% activated charcoal coated with 0.05% 69K dextran) was added to each well and the plate was immediately centrifuged at 99g for 5 minutes at 4°C. 200 uL of the supernatant solution was then removed for scintillation counting. Samples were counted to 2% or 10 minutes, whichever occurs first. […] Also, wells containing radioactivity but no cytosol were processed with charcoal to estimate unremovable DPM of [^3H]
Counts per minute (CPM) of radioactivity were automatically converted to disintegrated per minute (DPM) by the Beckman LS 7500 Scintillation Counter using a set of quenched standards to generate a H# for each sample.
For the generation of IC50 curves, % binding is plotted vs compound. […] For a description of these methods, see Hulme, E.C., ed. 1992. Receptor-Ligand Interactions: A Practical Approach. IRL Press, New York.(see especially chapter 8).

Take `CC/C(=C(\c1ccccc1)c1ccc(OCCN(C)C)cc1)c1ccccc1` [tamoxifen, reference compound]: the “% Activation (Compound + 1 nM 17β-estradiol)” value in experiment [1] was 45%.

Consider `CCN(CC)C(=O)/C=C/c1ccc(Cn2c(-c3ccc(O)cc3)c(C)c3cc(O)ccc32)cc1` [Example 7, (E)-N, N-Diethyl-3-{4-[5-hydroxy-2-(4-hydroxy-phenyl)-3-methyl-indol-1-ylmethyl]-phenyl}-acrylamide], for which, in experiment [1], the “% Activation (Compound + 1 nM 17β-estradiol)” value worked out at 9% and the “% Activation” value amounted to 1%. For the same compound, in experiment [2], the “% Activation with 1 nM 17β-estradiol” value is on record as 8% and the “% Activation” value is listed as 4%. Moreover, in experiment [3], the “Estrogen Receptor Affinity (reported as RBA: 17β-estradiol=100)” value (“Estrogen Receptor Affinity” for short) is 42.

For `Cc1c(-c2ccc(O)cc2)n(Cc2ccc(C#CCN(C)C)cc2)c2ccc(O)cc12` [Example 21, 2-(4-Hydroxy-phenyl)-3-methyl-1-[4-(3-N, N-dimethyl-1-yl-prop-1-ynyl)-benzyl]-1H-indol-5-ol], in experiment [1], the “% Activation (Compound + 1 nM 17β-estradiol)” value is 34% and the “% Activation” value is reported as 34%. In experiment [2], the “% Activation with 1 nM 17β-estradiol” value came to 34% and the “% Activation” value is on record as 34%. Moreover, the “Estrogen Receptor Affinity” value in experiment [3] came out at 53.

For the compound `Cc1c(-c2ccc(O)cc2)n(Cc2ccc(/C=C/C(N)=O)cc2)c2ccc(O)cc12` [Example 14, (E)-3-{4-[5-hydroxy-2-(4-hydroxy-phenyl)-3-methyl-indol-1-ylmethyl]-phenyl}-acrylamide], in experiment [1], the “% Activation (Compound + 1 nM 17β-estradiol)” value is given as 14% and the “% Activation” value is reported as 2%. Moreover, in experiment [2], the “% Activation with 1 nM 17β-estradiol” value came to 57% and the “% Activation” value stood at 19%. In experiment [3], the “Estrogen Receptor Affinity” value came out at 32.

`Cc1c(-c2ccc(O)cc2)n(Cc2ccc(C#CCN3CCCCC3)cc2)c2ccc(O)cc12` [Example 22, 2-(4-Hydroxy-phenyl)-3-methyl-1-[4-(3-piperidin-1-yl-prop-1-ynyl)-benzyl]-1H-indol-5-ol]: in experiment [1], the “% Activation (Compound + 1 nM 17β-estradiol)” value is reported as 23% and the “% Activation” value was found to be 27%. In addition, in experiment [2], the “% Activation with 1 nM 17β-estradiol” value turned out to be 19% and the “% Activation” value came to 17%. Moreover, the “Estrogen Receptor Affinity” value in experiment [3] is reported as 23.

In the case of `CCCCN(C)C(=O)/C=C/c1ccc(Cn2c(-c3ccc(O)cc3)c(C)c3cc(O)ccc32)cc1` [Example 12, (E)-N-Butyl, N'-methyl-3-{4-[5-hydroxy-2-(4-hydroxy-phenyl)-3-methyl-indol-1-ylmethyl]-phenyl}-acrylamide], in experiment [1], the “% Activation (Compound + 1 nM 17β-estradiol)” value came out at 16% and the “% Activation” value stood at 7%. Further, in experiment [2], the “% Activation with 1 nM 17β-estradiol” value is recorded as 24% and the “% Activation” value was determined as 13%. The “Estrogen Receptor Affinity” value in experiment [3] was 114.

As to `Cc1c(-c2ccc(O)cc2)n(Cc2ccc(/C=C/C(=O)N(C)C)cc2)c2ccc(O)cc12` [Example 10, (E)-N, N-Dimethyl-3-{4-[5-hydroxy-2-(4-hydroxy-phenyl)-3-methyl-indol-1-ylmethyl]-phenyl}-acrylamide], in experiment [1], the “% Activation (Compound + 1 nM 17β-estradiol)” value is on record as 19% and the “% Activation” value stood at 6%. For the same compound, in experiment [2], the “% Activation with 1 nM 17β-estradiol” value was 2% and the “% Activation” value stood at 1%. Also, the “Estrogen Receptor Affinity” value in experiment [3] was found to be 20.

Regarding `O=C(c1ccc(OCCN2CCCCC2)cc1)c1c(-c2ccc(O)cc2)sc2cc(O)ccc12` [raloxifene, reference compound], the “% Activation (Compound + 1 nM 17β-estradiol)” value in experiment [1] is on record as 5%.

`CCCCN(CCCC)C(=O)/C=C/c1ccc(Cn2c(-c3ccc(O)cc3)c(C)c3cc(O)ccc32)cc1` [Example 11, (E)-N, N-Dibutyl-3-{4-[5-hydroxy-2-(4-hydroxy-phenyl)-3-methyl-indol-1-ylmethyl]-phenyl}-acrylamide]: in experiment [1], the “% Activation (Compound + 1 nM 17β-estradiol)” value is recorded as 11% and the “% Activation” value is reported as 6%. Besides, in experiment [2], the “% Activation with 1 nM 17β-estradiol” value amounted to 12% and the “% Activation” value was found to be 8%. Further, the “Estrogen Receptor Affinity” value in experiment [3] is listed as 80.

Take `Cc1c(-c2ccc(O)cc2)n(Cc2ccc(/C=C/C(=O)N3CCCC3)cc2)c2ccc(O)cc12` [Example 9, (E)-Pyrrolidino-3-{4-[5-hydroxy-2-(4-hydroxy-phenyl)-3-methyl-indol-1-ylmethyl]-phenyl}-acrylamide]: in experiment [1], the “% Activation (Compound + 1 nM 17β-estradiol)” value was found to be 11% and the “% Activation” value is given as 3%. In experiment [2], the “% Activation with 1 nM 17β-estradiol” value was 8% and the “% Activation” value worked out at 6%.

On to `C[C@]12CC[C@@H]3c4ccc(O)cc4CC[C@H]3[C@@H]1CC[C@H]2O` [17α-estradiol, reference compound], for which the EC50 in experiment [1] (Ishikawa cells, reference standards, read-out: ED50 values (95% C.I.), estrogenic activity by the alkaline phosphatase method) amounted to 1.42 nM.

With `Cc1c(-c2ccc(O)cc2)n(Cc2ccc(/C=C/C(=O)N3CCOCC3)cc2)c2ccc(O)cc12` [Example 13], in experiment [1], the “% Activation (Compound + 1 nM 17β-estradiol)” value is reported as 9% and the “% Activation” value was 7%. In addition, in experiment [2], the “% Activation with 1 nM 17β-estradiol” value was determined as 17% and the “% Activation” value stood at 8%.
